The values that follow come from EP2545050B1, “COMPOUNDS FOR THE TREATMENT OF HEPATITIS C” (Bristol-Myers Squibb Company, priority 2010, dated 2011).

For orientation: EC50 means the concentration that produces a half-maximal response. A lower EC50 goes with greater potency.

The first data set relates to HCV.
Assay: not given
To be noted: extended dosing of the combination regimens; development suspended; cited from earlier work.
Consider `CNC(=O)c1c(-c2ccc(F)cc2)oc2cc(N(CCO)S(C)(=O)=O)c(C3CC3)cc12` [HCV-796], for which the hepatic toxicity entry is reported as “hepatic toxicity observed”.

For another data set, the system named is HCV replicon. As to the kind of experiment: HCV replicon assay (FRET or luciferase reporter). The note with it: Hepatitis C virus; HCV replicon cells; Table 1. In kind it is cell-based. From the text:
FRET Assay Preparation. To perform the HCV FRET screening assay, 96-well cell culture plates were used. The FRET peptide (Anaspec, Inc.) (Taliani et al., Anal. Biochem. 1996, 240, 60-67) contains a fluorescence donor, EDANS, near one end of the peptide and an acceptor, DABCYL, near the other end. The fluorescence of the peptide is quenched by […] resonance energy transfer (RET) between the donor and the acceptor, but as the NS3 protease cleaves the peptide the products are released from RET quenching and the fluorescence of the donor becomes apparent. The assay reagent was made as follows: 5X cell Luciferase cell culture lysis reagent from Promega (#E153A) diluted to 1X with dH2O, NaCl added to 150 mM final, the FRET peptide diluted to 20 µM final from a 2 mM stock.
To prepare plates, HCV replicon cells, with or without a Renilla luciferase reporter gene, were trypsinized and placed into each well of a 96-well plate with titrated test compounds added in columns 3 through 12; columns 1 and 2 contained a control compound (HCV protease inhibitor), and the bottom row contained cells without compound. The plates were then placed in a CO2 incubator at 37 °C.
Assays. Subsequent to addition of the test compounds described above (FRET Assay Preparation), at various times the plate was removed and Alamar blue solution (Trek Diagnostics, #00-100) was added per well as a measure of cellular toxicity. After reading in a Cytoflour 4000 instrument (PE Biosystems), plates were rinsed with PBS and then used for FRET assay by the addition of 30 ul of the FRET peptide assay reagent described above (FRET Assay Preparation) per well. The plate was then placed into the Cytoflour 4000 instrument which had been set to 340 excite/490 emission, automatic mode for 20 cycles and the plate read in a kinetic mode. Typically, the signal to noise using an endpoint analysis after the reads was at least three-fold. Alternatively, after Alamar blue reading, plates were rinsed with PBS, 50 ul of DMEM (high glucose) without phenol red was added and plates were then used for luciferase assay using the Promega Dual-Glo Luciferase Assay System.
Compound analysis was determined by quantification of the relative HCV replicon inhibition and the relative cytotoxicity values. To calculate cytoxicity values, the average Alamar Blue fluorescence signals from the control wells were set as 100% non-toxic. The individual signals in each of the compound test wells were then divided by the average control signal and multiplied by 100% to determine […]. To calculate the HCV replicon inhibition values, an average background value was obtained from the two wells containing the highest amount of HCV protease inhibitor at the end of the assay period. These numbers were similar to those obtained from naive Huh-7 cells.
The background numbers were then subtracted from the average signal obtained from the control wells and this number was used as 100% activity. The individual signals in each of the compound test wells were then divided by the averaged control values after background subtraction and multiplied by 100% to determine percent activity. EC50 values for a protease inhibitor titration were calculated as the concentration which caused a 50% reduction in FRET or luciferase activity. The two numbers generated for the compound plate, percent cytoxicity and percent activity were used to determine compounds of interest for further analysis.
HCV Replicon Luciferase Reporter Assay
The HCV replicon luciferase assay was developed to monitor the inhibitory effects of compounds described in the disclosure on HCV viral replication. Utilization of a replicon luciferase reporter assay was first described by Krieger et al (Krieger N, Lohmann V, and Bartenschlager R, J. Virol. 75(10):4614-4624 (2001)). […]
Turning to `CNC(=O)c1c(-c2ccc(F)cc2)nn2ccc(-c3cc(C(=O)NC4(c5cc(F)ccn5)CC4)c(OC)nc3C)c(F)c12` [4-fluoro-2-(4-fluorophenyl)-5-(5-(1-(4-fluoropyridin-2-yl)cyclopropylcarbamoyl)-6-methoxy-2-methylpyridin-3-yl)-N-methylpyrazolo[1,5-a]pyridine-3-carboxamide], the 50% effective concentration (EC50) was in the range of 2 to 250 nM.

As for `CNC(=O)c1c(-c2ccc(F)cc2)nn2ccc(-c3cc(C(=O)NC4(c5ccccn5)CC4)c(OCC4CCOCC4)nc3C)c(F)c12` [4-fluoro-2-(4-fluorophenyl)-N-methyl-5-(2-methyl-5-(1-(pyridin-2-yl)cyclopropylcarbamoyl)-6-((tetrahydro-2H-pyran-4-yl)methoxy)pyridin-3-yl)pyrazolo[1,5-a]pyridine-3-carboxamide], the half-maximal effective concentration (EC50) fell in the range of 2 to 250 nM.

`CNC(=O)c1c(-c2ccc(F)cc2)nn2ccc(-c3cc(C(=O)NC4(c5ccccn5)CC4)c(OC(F)F)nc3C)c(F)c12` [5-(6-(difluoromethoxy)-2-methyl-5-(1-(pyridin-2-yl)cyclopropylcarbamoyl)pyridin-3-yl)-4-fluoro-2-(4-fluorophenyl)-N-methylpyrazolo[1,5-a]pyridine-3-carboxamide] showed a 50% effective concentration (EC50) of 2 to 250 nM.

`CNC(=O)c1c(-c2ccc(F)cc2)nn2ccc(-c3cc(C(=O)NC4(c5ccccn5)CC4)c(OC)nc3C)c(F)c12` [4-fluoro-2-(4-fluorophenyl)-5-(6-methoxy-2-methyl-5-(1-(pyridin-2-yl)cyclopropylcarbamoyl)pyridin-3-yl)-N-methylpyrazolo[1,5-a]pyridine-3-carboxamide]: the concentration for a half-maximal effect (EC50) is 2 to 250 nM.

Compound `CNC(=O)c1c(-c2ccc(F)cc2)nn2ccc(-c3cc(C(=O)NC4(c5ccccc5)CC4)c(OC(F)F)nc3C)c(F)c12` [5-(6-(difluoromethoxy)-2-methyl-5-(1-phenylcyclopropylcarbamoyl)pyridin-3-yl)-4-fluoro-2-(4-fluorophenyl)-N-methylpyrazolo[1,5-a]pyridine-3-carboxamide] registered an EC50 of 2 to 250 nM.

The compound `CNC(=O)c1c(-c2ccc(F)cc2)nn2ccc(-c3cc(C(=O)NC4(c5nccc(O)n5)CC4)c(OC)cc3C)c(F)c12` [4-fluoro-2-(4-fluorophenyl)-5-(5-(1-(4-hydroxypyrimidin-2-yl)cyclopropylcarbamoyl)-4-methoxy-2-methylphenyl)-N-methylpyrazolo[1,5-a]pyridine-3-carboxamide] came in with an EC50 of 1000 to 10000 nM.

`CNC(=O)c1c(-c2ccc(F)cc2)nn2ccc(-c3cc(C(=O)NC4(c5cnccn5)CC4)c(OC)cc3C)c(F)c12` [4-fluoro-2-(4-fluorophenyl)-5-(4-methoxy-2-methyl-5-(1-(pyrazin-2-yl)cyclopropylcarbamoyl)phenyl)-N-methylpyrazolo[1,5-a]pyridine-3-carboxamide] came in with an EC50 of 2 to 250 nM.

Take `CNC(=O)c1c(-c2ccc(F)cc2)nn2ccc(-c3cc(C(=O)NC4(c5ccccc5)CC4)c(OC)nc3C)c(F)c12` [4-fluoro-2-(4-fluorophenyl)-5-(6-methoxy-2-methyl-5-(1-phenylcyclopropylcarbamoyl)pyridin-3-yl)-N-methylpyrazolo[1,5-a]pyridine-3-carboxamide]: the EC50 lay in the range of 2 to 250 nM.

`CNC(=O)c1c(-c2ccc(F)cc2)nn2ccc(-c3cc(C(=O)NC4(c5ccnnc5)CC4)c(OC)cc3C)c(F)c12` [4-fluoro-2-(4-fluorophenyl)-5-(4-methoxy-2-methyl-5-(1-(pyridazin-4-yl)cyclopropylcarbamoyl)phenyl)-N-methylpyrazolo[1,5-a]pyridine-3-carboxamide] returned a concentration giving a half-maximal response (EC50) of 1000 to 10000 nM.

`CNC(=O)c1c(-c2ccc(F)cc2)nn2ccc(-c3cc(C(=O)NC4(c5ncccn5)CC4)c(OCC4CCOCC4)nc3C)c(F)c12` [4-fluoro-2-(4-fluorophenyl)-N-methyl-5-(2-methyl-5-(1-(pyrimidin-2-yl)cyclopropylcarbamoyl)-6-((tetrahydro-2H-pyran-4-yl)methoxy)pyridin-3-yl)pyrazolo[1,5-a]pyridine-3-carboxamide] returned a concentration for a half-maximal effect (EC50) of 2 to 250 nM.
